± gives the expanded uncertainty stated by the source.
Conditions: Liquid; for viscosity: Vibrating wire viscometry; for mass density: Vibrating wire densiometer

CCCCCCCCCCCCCCCC [hexadecane]
Conditions	mass density [kg/m3]	viscosity [mPa·s]
398.21 K, 1670 kPa	–	0.694 ± 0.015
398.21 K, 20450 kPa	719.1 ± 2.2	0.872 ± 0.019
398.21 K, 40750 kPa	735.1 ± 2.2	1.066 ± 0.023
398.21 K, 60560 kPa	748.2 ± 2.2	1.265 ± 0.027
398.21 K, 80390 kPa	759.4 ± 2.3	1.488 ± 0.031
398.21 K, 100460 kPa	769.4 ± 2.3	1.71 ± 0.036
398.28 K, 1050 kPa	700.3 ± 2.1	0.697 ± 0.015
398.28 K, 21190 kPa	719.6 ± 2.2	0.879 ± 0.019
398.28 K, 41290 kPa	735.3 ± 2.2	1.082 ± 0.023
398.28 K, 59990 kPa	747.8 ± 2.2	1.267 ± 0.027
398.28 K, 80670 kPa	759.3 ± 2.3	1.498 ± 0.031
423.26 K, 1360 kPa	682.2 ± 2.1	0.542 ± 0.012
423.26 K, 1420 kPa	682.4 ± 2.1	0.544 ± 0.012
423.26 K, 20790 kPa	704.2 ± 2.1	0.691 ± 0.015
423.26 K, 40900 kPa	721.5 ± 2.2	0.845 ± 0.018
423.26 K, 60040 kPa	735.2 ± 2.2	0.998 ± 0.021
423.26 K, 80490 kPa	747.7 ± 2.2	1.171 ± 0.025
423.26 K, 100020 kPa	758.2 ± 2.3	1.348 ± 0.028
423.31 K, 1460 kPa	682.9 ± 2.1	0.554 ± 0.012
423.31 K, 20610 kPa	704.4 ± 2.1	0.699 ± 0.015
423.31 K, 40760 kPa	721.8 ± 2.2	0.853 ± 0.018
423.31 K, 60120 kPa	735.2 ± 2.2	1.012 ± 0.022
423.31 K, 80990 kPa	748.2 ± 2.2	1.189 ± 0.025
448.23 K, 1100 kPa	664 ± 2	0.437 ± 0.01
448.23 K, 1170 kPa	664.1 ± 2	0.438 ± 0.01
448.23 K, 20220 kPa	688.7 ± 2.1	0.559 ± 0.013
448.23 K, 40500 kPa	708.1 ± 2.1	0.689 ± 0.015
448.23 K, 60460 kPa	723.5 ± 2.2	0.82 ± 0.018
448.23 K, 80430 kPa	736.5 ± 2.2	0.958 ± 0.02
448.23 K, 100270 kPa	748 ± 2.2	1.098 ± 0.023
448.48 K, 1230 kPa	663.8 ± 2	0.445 ± 0.01
448.48 K, 20750 kPa	688.9 ± 2.1	0.571 ± 0.013
448.48 K, 40680 kPa	707.8 ± 2.1	0.702 ± 0.015
448.48 K, 60650 kPa	723.1 ± 2.2	0.831 ± 0.018
448.48 K, 80720 kPa	736.2 ± 2.2	0.97 ± 0.021
473.54 K, 1250 kPa	645.4 ± 2	0.359 ± 0.01
473.54 K, 1270 kPa	645.8 ± 1.9	0.36 ± 0.009
473.54 K, 20770 kPa	674.2 ± 2	0.469 ± 0.011
473.54 K, 40980 kPa	695.3 ± 2.1	0.579 ± 0.013
473.54 K, 60770 kPa	711.8 ± 2.1	0.688 ± 0.015
473.54 K, 80500 kPa	725.5 ± 2.2	0.803 ± 0.017
473.54 K, 101080 kPa	738.1 ± 2.2	0.924 ± 0.02
473.85 K, 1400 kPa	645.2 ± 1.9	0.367 ± 0.009
473.85 K, 21260 kPa	674.3 ± 2	0.478 ± 0.011
473.85 K, 41040 kPa	694.7 ± 2.1	0.59 ± 0.013
473.85 K, 61190 kPa	711.3 ± 2.1	0.706 ± 0.015
473.85 K, 81710 kPa	725.7 ± 2.2	0.815 ± 0.018
